Measured values published in patent US12662491B2 (Redona Therapeutics, Inc., priority 2020, dated 2026).

Molecular target: T1, Zcchc11 enzyme (Homo sapiens, UniProt Q5TAX3)
T1 construct: made in house; host or cells: HEK293 cells (Zcchc11); E. coli Rosetta II (LIN28A)
T1 sequence (Q5TAX3 212-1420): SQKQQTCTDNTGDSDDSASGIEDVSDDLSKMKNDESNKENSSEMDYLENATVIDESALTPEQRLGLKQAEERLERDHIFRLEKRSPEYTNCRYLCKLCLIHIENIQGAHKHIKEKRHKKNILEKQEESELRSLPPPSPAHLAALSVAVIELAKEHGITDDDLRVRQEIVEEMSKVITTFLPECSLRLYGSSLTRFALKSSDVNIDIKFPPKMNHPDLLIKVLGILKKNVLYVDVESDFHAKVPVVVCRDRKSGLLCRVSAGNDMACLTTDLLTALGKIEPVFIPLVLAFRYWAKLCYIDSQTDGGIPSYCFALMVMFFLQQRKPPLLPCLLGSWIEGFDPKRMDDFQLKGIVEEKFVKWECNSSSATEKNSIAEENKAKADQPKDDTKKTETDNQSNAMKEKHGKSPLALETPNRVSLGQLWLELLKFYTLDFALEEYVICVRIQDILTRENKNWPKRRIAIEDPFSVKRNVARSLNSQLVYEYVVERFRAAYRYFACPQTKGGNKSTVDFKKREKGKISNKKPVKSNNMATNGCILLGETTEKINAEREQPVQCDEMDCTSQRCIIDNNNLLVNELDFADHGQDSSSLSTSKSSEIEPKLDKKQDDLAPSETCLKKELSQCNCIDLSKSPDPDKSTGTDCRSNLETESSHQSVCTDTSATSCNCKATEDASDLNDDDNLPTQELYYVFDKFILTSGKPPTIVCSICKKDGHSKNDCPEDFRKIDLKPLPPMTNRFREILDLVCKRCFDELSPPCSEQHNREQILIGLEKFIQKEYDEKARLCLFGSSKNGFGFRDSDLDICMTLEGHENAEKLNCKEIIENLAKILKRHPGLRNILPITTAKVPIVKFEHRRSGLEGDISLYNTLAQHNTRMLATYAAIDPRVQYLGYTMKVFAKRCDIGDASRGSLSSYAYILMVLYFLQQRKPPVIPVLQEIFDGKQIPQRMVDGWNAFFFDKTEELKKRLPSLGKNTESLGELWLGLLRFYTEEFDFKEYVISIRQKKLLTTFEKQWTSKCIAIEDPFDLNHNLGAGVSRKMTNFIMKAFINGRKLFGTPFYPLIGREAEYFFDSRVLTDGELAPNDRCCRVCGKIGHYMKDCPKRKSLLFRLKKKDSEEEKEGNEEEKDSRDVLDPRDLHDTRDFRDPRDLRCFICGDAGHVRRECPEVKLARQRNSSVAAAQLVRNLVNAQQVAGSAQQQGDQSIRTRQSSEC
Experiment: TUTase assay (Zcchc11 assay, Lin28a-dependent polyuridylation of pre-let-7)
Type: biochemical
Settings: LIN28A 10 nM, Zcchc11 0.2 nM, 5′-fluorescein pre-let-7 miRNA 2 nM, UTP 5 uM, room temperature, 30 minutes pre-incubation; read-out: Potency Lin28a-dep Z11 IC50
How it was run: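 Potency is measured as inhibition of LIN28A-driven U-tail addition to 2 nM pre-let-7 by 0.2 nM HEK293-derived Zcchc11 fragment with 5 uM UTP at room temperature. Tail growth appears as fluorescein quenching by an annealing rhodamine-A20 probe.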

IC50 | Compound
1000 to 10000 nM | O=C(O)c1cn(-c2ccc(O)cc2F)c2cc(N3CCC[C@@H]3COc3ncccn3)c(F)cc2c1=O [Example 22, (R)-6-fluoro-1-(2-fluoro-4-hydroxyphenyl)-4-oxo-7-(2-((pyrimidin-2-yloxy)methyl)pyrrolidin-1-yl)-1,4-dihydroquinoline-3-carboxylic acid]

Same assay, conditions: Lin28a-dependent Zcchc11 (Z11) TUTase activity; read-out: Potency Lin28a-dep Z11 IC50

IC50 | Compound
≤ 1000 nM | Nc1ccc(-n2cc(C(=O)O)c(=O)c3cc(Cl)c(N4CCC[C@@H]4COc4ncccc4F)cc32)cn1 [Compound 214, 1-(6-Aminopyridin-3-yl)-6-chloro-7-[(2R)-2-{[(3-fluoropyridin-2-yl)oxy]methyl}pyrrolidin-1-yl]-4-oxoquinoline-3-carboxylic acid]
≤ 1000 nM | Cn1cc(-n2cc(C(=O)O)c(=O)c3cc(C#N)c(N4CCCC4COc4ncccc4F)cc32)cn1 (racemic) [Compound 245, rac-(R)-6-cyano-7-(2-(((3-fluoropyridin-2-yl)oxy)methyl)pyrrolidin-1-yl)-1-(1-methyl-1H-pyrazol-4-yl)-4-oxo-1,4-dihydro-quinoline-3-carboxylic acid]
≤ 1000 nM | CC1(n2cc(C(=O)O)c(=O)c3cc(Cl)c(N4CCC[C@@H]4COc4ncccc4Cl)cc32)CC1 [Compound 129, (R)-6-chloro-7-(2-(((3-chloropyridin-2-yl)oxy)methyl)pyrrolidin-1-yl)-1-(1-methylcyclo-propyl)-4-oxo-1,4-dihydro-quinoline-3-carboxylic acid]
1000 to 10000 nM | O=C(O)c1cn(-c2cc(F)ccc2F)c2cc(N3CCC[C@@H]3COc3ccccn3)c(F)cc2c1=O [Compound 143, (R)-1-(2,5-difluorophenyl)-6-fluoro-4-oxo-7-(2-((pyridin-2-yloxy)methyl)pyrrolidin-1-yl)-1,4-dihydro-quinoline-3-carboxylic acid]
10000 to 50000 nM | O=C(O)c1cn(-c2ccc(N3CCC3)nc2)c2cc(N3C(=O)CC[C@@H]3COc3ccccn3)c(Cl)cc2c1=O [Compound 287, (R)-1-(6-(azetidin-1-yl)pyridin-3-yl)-6-chloro-4-oxo-7-(2-oxo-5-((pyridin-2-yloxy)methyl)pyrrolidin-1-yl)-1,4-dihydro-quinoline-3-carboxylic acid]
≤ 1000 nM | CCN1CC(n2cc(-n3cc(C(=O)O)c(=O)c4cc(Cl)c(N5CCC[C@@H]5COc5ncccc5Cl)cc43)cn2)C1 [Compound 241]
≤ 1000 nM | COc1ccc(Cl)c(OC[C@H]2C[C@H](c3cccnc3)CN2c2cc3c(cc2Cl)c(=O)c(C(=O)O)cn3-c2ccc(N3CC(N(C)C)C3)nc2)n1 [Compound 348, 6-chloro-7-((2R,4R)-2-(((3-chloro-6-methoxy-pyridin-2-yl)oxy)methyl)-4-(pyridin-3-yl)pyrrolidin-1-yl)-1-(6-(3-(dimethyl-amino)azetidin-1-yl)pyridin-3-yl)-4-oxo-1,4-dihydro-quinoline-3-carboxylic acid]
10000 to 50000 nM | O=C(O)c1cn(C2CC2)c2cc(N3CCC[C@H]3COc3ccccn3)c(F)cc2c1=O [Compound 81, (S)-1-cyclopropyl-6-fluoro-4-oxo-7-(2-((pyridin-2-yloxy)methyl)pyrrolidin-1-yl)-1,4-dihydro-quinoline-3-carboxylic acid]
1000 to 10000 nM | COc1ccc(Cl)c(-n2cc(C(=O)O)c(=O)c3cc(F)c(N4CCC[C@@H]4COc4ccccn4)cc32)c1 [Compound 157, (R)-1-(2-chloro-5-methoxy-phenyl)-6-fluoro-4-oxo-7-(2-((pyridin-2-yloxy)methyl)pyrrolidin-1-yl)-1,4-dihydro-quinoline-3-carboxylic acid]
≤ 1000 nM | O=C(O)c1cn(-c2ccccc2)c2cc(N3CCC[C@@H]3COc3ccccn3)c(F)cc2c1=O [Compound 85, (R)-6-fluoro-4-oxo-1-phenyl-7-(2-((pyridin-2-yloxy)methyl)pyrrolidin-1-yl)-1,4-dihydro-quinoline-3-carboxylic acid]
10000 to 50000 nM | Cc1cc2c(=O)c(C(=O)O)cn(-c3ccc(N4CC(N(C)C)C4)nc3)c2cc1N1C(=O)CC1COc1ccccn1 (stereo not drawn) [Compound 298, 1-(6-(3-(dimethyl-amino)azetidin-1-yl)pyridin-3-yl)-6-methyl-4-oxo-7-(2-oxo-4-((pyridin-2-yloxy)methyl)azetidin-1-yl)-1,4-dihydro-quinoline-3-carboxylic acid]

Same assay, conditions: Lin28a-dependent Zcchc11 (Z11) TUTase assay; read-out: Potency Lin28a-dep Z11 IC50

IC50 | Compound
≤ 1000 nM | CNCCNc1ccc(-n2cc(C(=O)O)c(=O)c3cc(Cl)c(N4CCC[C@@H]4COc4ncccc4Cl)cc32)cn1 [Example 355, (R)-6-chloro-7-(2-(((3-chloropyridin-2-yl)oxy)methyl)pyrrolidin-1-yl)-1-(6-((2-(methylamino)ethyl)amino)pyridin-3-yl)-4-oxo-1,4-dihydro-quinoline-3-carboxylic acid]
≤ 1000 nM | COc1ccc(Cl)c(OC[C@H]2CC(N3CCCC3=O)CN2c2cc3c(cc2Cl)c(=O)c(C(=O)O)cn3-c2ccc(N3CC(N(C)C)C3)nc2)n1 (stereo partly drawn) [Example 642, 6-chloro-7-((5′R)-5′-(((3-chloro-6-methoxypyridin-2-yl)oxy)methyl)-2-oxo-[1,3′-bipyrrolidin]-1-yl)-1-(6-(3-(dimethylamino)azetidin-1-yl)pyridin-3-yl)-4-oxo-1,4-dihydroquinoline-3-carboxylic acid]
≤ 1000 nM | O=C(O)c1cn(-c2cnc(CO)cn2)c2cc(N3CCC[C@@H]3COc3ncccc3Cl)c(Cl)cc2c1=O [Example 411, (R)-6-chloro-7-(2-(((3-chloropyridin-2-yl)oxy)methyl)pyrrolidin-1-yl)-1-(5-(hydroxy-methyl)pyrazin-2-yl)-4-oxo-1,4-dihydroquinoline-3-carboxylic acid]
10000 to 50000 nM | O=C(O)c1cn(C2CC(CO)C2)c2cc(N3CCC[C@@H]3COc3ccccn3)c(F)cc2c1=O (stereo partly drawn) [Example 453, (R)-6-fluoro-1-(3-(hydroxymethyl)cyclobutyl)-4-oxo-7-(2-((pyridin-2-yloxy)methyl)pyrrolidin-1-yl)-1,4-dihydroquinoline-3-carboxylic acid]
1000 to 10000 nM | Nc1ccc(Cn2cc(C(=O)O)c(=O)c3cc(Cl)c(N4CCC[C@@H]4COc4ncccc4Cl)cc32)cn1 [Example 585, (R)-1-((6-aminopyridin-3-yl)methyl)-6-chloro-7-(2-(((3-chloropyridin-2-yl)oxy)methyl)pyrrolidin-1-yl)-4-oxo-1,4-dihydroquinoline-3-carboxylic acid]
≤ 1000 nM | COc1cnc(OC[C@H]2CCCN2c2cc3c(cc2Cl)c(=O)c(C(=O)O)cn3-c2ccc(N3CC(N(C)C)C3)nc2)c(Cl)c1 [Example 629, (R)-6-chloro-7-(2-(((3-chloro-5-methoxypyridin-2-yl)oxy)methyl)pyrrolidin-1-yl)-1-(6-(3-(dimethylamino)aztidin-1-yl)pyridin-3-yl)-4-oxo-1,4-dihydroquinoline-3-carboxylic acid]
1000 to 10000 nM | O=C(O)c1cn(-c2cccc(F)c2)c2cc(N3CCC[C@@H]3COc3ccccn3)c(F)cc2c1=O [Example 375, (R)-6-fluoro-1-(3-fluorophenyl)-4-oxo-7-(2-((pyridin-2-yloxy)methyl)pyrrolidin-1-yl)-1,4-dihydroquinoline-3-carboxylic acid]
≤ 1000 nM | CNC1CN(c2ccc(-n3cc(C(=O)O)c(=O)c4cc(Cl)c(N5CCC[C@@H]5COc5ncccc5Cl)cc43)cn2)C1 [Example 477, (R)-6-chloro-7-(2-(((3-chloropyridin-2-yl)oxy)methyl)pyrrolidin-1-yl)-1-(6-(3-(methyl-amino)azetidin-1-yl)pyridin-3-yl)-4-oxo-1,4-dihydroquinoline-3-carboxylic acid]
≤ 1000 nM | CN(C)C1CN(c2ccc(-n3cc(C(=O)O)c(=O)c4cc(Cl)c(N5CCC[C@@H]5CSc5ncccc5Cl)cc43)cn2)C1 [Example 596, (R)-6-chloro-7-(2-(((3-chloropyridin-2-yl)thio)methyl)pyrrolidin-1-yl)-1-(6-(3-(dimethylamino)azetidin-1-yl)pyridin-3-yl)-4-oxo-1,4-dihydroquinoline-3-carboxylic acid]
